This assay addresses Alpha-2 adrenergic receptor (Homo sapiens). Nature of the assay: Stimulatory activity against serotonin secretion (SEC).

Consider `Oc1ccc(CC2=NCCN2)c(F)c1O`, for which 15.5 µM corresponded to half-maximal inhibition (IC50).
The value for `Oc1cc(CC2=NCCN2)cc(F)c1O` was 18.2 µM.
For `Oc1ccc(C(O)c2ncc[nH]2)cc1O` (stereo not drawn), the IC50 (in general, the point on the concentration scale where inhibition reaches its midpoint) is 437 µM.

The record behind these values is BindingDB's records for doi:10.1021/jm00166a009 (Ohio State University, 1990).
